Entries after “also recorded” stand apart in the source; their conditions may differ.
Legend:
[1] = tested on: estrogen receptor; test: Estrogen receptor inhibition, Candida; format: binding
[2] = tested on: human fibroblast cells; test: Collagen production by fibroblast cells; format: cell-based; settings: treated vs control cells
Description: (§1) Experiments generally following the methodology of Boote et al., Biochimica et Biophysica Acta, Volume 607, pages 145-160 (1980), have shown that while control human fibroblast cells have copious collagen production, treatment with the compounds of the invention provides human fibroblast cells with suppressed collagen production and with an about 30% increase in elastin production over control cells.
(§2) Wrinkling of the skin involves the decreased formation of elastin and the increased formation of collagen by supporting cells, predominantly the fibroblasts.

[3] = target: T1, androgen receptor (Homo sapiens, UniProt P10275); test: In vitro inhibition of the androgen receptor-DHT interaction; format: binding; design: from tissue; settings: for % of Androgen Receptor Inhibition: DHT; for Femtamoles of DHT Bound/mg Protein: corrected for nonspecific binding, 0:1 = 78
T1 sequence (P10275 1-920): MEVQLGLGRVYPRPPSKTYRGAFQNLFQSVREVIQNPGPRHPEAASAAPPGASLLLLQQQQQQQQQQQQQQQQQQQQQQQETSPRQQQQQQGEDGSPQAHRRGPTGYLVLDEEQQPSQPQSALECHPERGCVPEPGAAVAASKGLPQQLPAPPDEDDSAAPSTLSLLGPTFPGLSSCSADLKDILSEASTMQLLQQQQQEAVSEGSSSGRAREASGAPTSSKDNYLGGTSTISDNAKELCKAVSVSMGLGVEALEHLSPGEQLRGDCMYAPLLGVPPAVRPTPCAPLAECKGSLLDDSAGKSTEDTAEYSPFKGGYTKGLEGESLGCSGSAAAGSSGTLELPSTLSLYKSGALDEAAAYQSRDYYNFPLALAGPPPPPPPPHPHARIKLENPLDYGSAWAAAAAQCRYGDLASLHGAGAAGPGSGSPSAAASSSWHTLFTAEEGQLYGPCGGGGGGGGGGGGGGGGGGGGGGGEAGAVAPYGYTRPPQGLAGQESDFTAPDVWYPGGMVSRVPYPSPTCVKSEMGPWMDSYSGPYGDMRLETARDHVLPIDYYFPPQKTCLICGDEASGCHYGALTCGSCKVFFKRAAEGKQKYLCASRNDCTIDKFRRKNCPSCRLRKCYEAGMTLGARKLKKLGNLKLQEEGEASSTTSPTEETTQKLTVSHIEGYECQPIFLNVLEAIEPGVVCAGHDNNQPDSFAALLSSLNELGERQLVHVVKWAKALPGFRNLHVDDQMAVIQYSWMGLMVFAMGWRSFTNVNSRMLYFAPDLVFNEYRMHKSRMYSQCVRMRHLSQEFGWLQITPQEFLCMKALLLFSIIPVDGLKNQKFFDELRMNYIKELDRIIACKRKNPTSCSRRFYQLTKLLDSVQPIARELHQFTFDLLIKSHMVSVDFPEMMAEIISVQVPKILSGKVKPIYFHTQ

[4] = target: T2, androgen receptor sites (Homo sapiens, UniProt P10275); test: Anti-androgenic action in similar tests
T2 construct: other tests of the document use human skin, keloid and fibroblasts with 3H-DHT
Description: The test procedures set forth in Examples 54-58 may be repeated with the compound 2-(5-methoxyhept-1-yl)bicyclo[3.3.0]octan-7-one {hexahydro-4-(5-methoxyheptyl)-2(1H)-pentalenone}.

[5] = tested on: Fusarium; test: Effects on Fusarium growth and fungal hormone production; format: cell-based
Description: It is also known that these fungi elaborate zearalenone and zearalanol which are toxic substances to livestock ingesting the grain rotted by them. Ingestion of these toxic substances is known to influence the prepubertal development of pigs (Berger et al., Journal of Animal Science, Vol. 53, pages 1559-1564 (1981). Zearalenone and zearalanol also affect milk production, breeding and pregnancy in such large livestock animals as pigs, cows and horses (Young et al., Journal of Animal Science, Vol. 54, pages 976-982). The Fusarium family of fungi also adversely affect chicken, turkey and other poultry animal populations (Allen et al., Poultry Science, Vol. 60, pages 124-131 (1981); Mirocha et al., Poultry Science, Vol. 60, pages 19-25 (1981)). Because of the importance of livestock production, the effect of the anti-androgens of this invention on these fungi was extensively studied. There is no currently available satisfactory treatment for the fungi nor the fungal hormones they elaborate (i.e., zearalenone and zearalanol).

[6] = tested on: androgen receptor; test: Androgen receptor inhibition, Fusarium calorum; format: binding
Description: In the second series of experiments using the compound of the invention 2-(5-hydroxyhept-1-yl) bicyclo[3.3.0]octan-7-one {hexahydro-4-(5-hydroxyheptyl)-2-(1H)-pentalenone} upon zeralenone and zearalanol production, zearalenone and zearalanol were chemically obtained from Sigma Chemical Co., St. Louis, Mo.

[7] = tested on: estrogen receptor; test: Estrogen receptor inhibition, Blastomyces; format: binding
[8] = target: T3, androgen receptor site (Homo sapiens, UniProt P10275); test: % inhibition of labelled androgen (3H DHT) binding to caesarean section skin from hirsute patients
T3 construct: the test utilizing caesarean section skin from hirsute patients; from tissue; host or cells: caesarean section skin from hirsute patients
T3 sequence (P10275 1-920): T1 sequence (P10275 1-920)

[9] = tested on: human fibroblast cells; test: Elastin production by fibroblast cells; format: cell-based; settings: for formation of elastin: Example 45; for increase in elastin production over control cells: treated vs control (non-treated) fibroblast cells
Description: as §1, §2

[10] = tested on: estrogen receptor; test: Estrogen receptor inhibition, Sporotrichum; format: binding
[11] = tested on: progesterone receptor; test: Progesterone receptor inhibition, Sporotrichum; format: binding
[12] = target: T1, androgen receptor; test: In vitro inhibition of the androgen receptor-testosterone interaction; format: binding; design: from tissue; settings: for inhibition of the androgen receptor site: 10 molecules of compound for one molecule of testosterone; for Femtamoles of Testosterone Bound/mg Protein / % of Androgen Receptor Inhibition: ratio of compound to androgen 20:1; for Femtamoles of Testosterone Bound/mg Protein: corrected for nonspecific binding, 0:1 = 3.6; for % of Androgen Receptor Inhibition: testosterone
Description: Competitive inhibition experiments were performed using compound IV in the second technique described above.

[13] = tested on: estrogen receptor (keloid cytosol); test: Keloid cytosol steroid binding assay, estrogen; design: species or system human
[14] = target: T2, androgen receptor sites; test: Retarding collagen formation through blockage of androgen receptor sites; settings: Example 53
Description: Accordingly, to treat arteriosclerosis, an oral dosage unit formulation is produced which contains 2 mg of 2-(5-methoxyhept-1-yl)bicyclo [3.3.0]octan-7-one {hexahydro-4-(5-methoxyheptyl)-2(1H)-pentalenone}, which is delivered to a subject once every six hours.

[15] = target: T4, androgen receptor sites (keloid cytosol) (Homo sapiens, UniProt P10275); test: Keloid cytosol steroid binding assay, androgen (DHT)
T4 construct: Surgical excision of keloids was performed from clinic and private patient populations; from tissue; host or cells: cytosol of surgically excised keloids
T4 sequence (P10275 1-920): T1 sequence (P10275 1-920)

[16] = ratio of compound to androgen 10:1
[17] = ratio of compound to androgen 100:1
[18] = ratio of compound to androgen 1000:1
[19] = ratio of compound to androgen 10000:1

Structure (SMILES): CCC(O)CCCCC1CCC2CC(=O)CC12 (stereo not drawn) [Compound IV]
- % Estrogen Receptor Inhibition [1]: 0%
- collagen production/formation [2]: decreased
- collagen production/formation ([2]; listed as compound IV): decrease in collagen production
- % of Androgen Receptor Inhibition [3, 16]: 25.6%
- % of Androgen Receptor Inhibition [3, 17]: 41.0%
- Femtamoles of DHT Bound/mg Protein [3, 16]: 58 Femtamoles/mg Protein
- Femtamoles of DHT Bound/mg Protein [3, 17]: 46 Femtamoles/mg Protein
- anti-androgenic action [4]: anti-androgenic compound operating in the same manner
- inhibitory effects on species of Fusarium [5]: valuable inhibitory effects
- colony counts ([5]; Fusarium): markedly decreased
- growth rate ([5]; Fusarium): markedly decreased
- production of zearalanol ([5]; Fusarium): markedly decreased
- production of zearalenone ([5]; Fusarium): markedly decreased
- % Androgen Receptor Inhibition ([6]; DHT:anti-androgen 1:1): 29%
- % Androgen Receptor Inhibition ([6]; DHT:anti-androgen 1:10): 37%
- % Androgen Receptor Inhibition ([6]; DHT:anti-androgen 1:100): 79%
- % Androgen Receptor Inhibition ([6]; DHT:anti-androgen 1:1,000): 90%
- % Estrogen Receptor Inhibition [7]: 0%
- % Inhibition of 3H Androgen Binding to Skin [8, 16]: 25%
- % Inhibition of 3H Androgen Binding to Skin [8, 17]: 51%
- % Inhibition of 3H Androgen Binding to Skin [8, 18]: 75%
- % Inhibition of 3H Androgen Binding to Skin [8, 19]: 83%
- formation of elastin [9]: massive observable increase in the formation of elastin
- increase in elastin production over control cells [9]: ~30%
- % Estrogen Receptor Inhibition [10]: 0%
- % Progesterone Receptor Inhibition [11]: 7%
- inhibition of the androgen receptor site [12]: inhibited the androgen receptor site
- Femtamoles of Testosterone Bound/mg Protein [12]: 2.0 Femtamoles/mg Protein
- % of Androgen Receptor Inhibition [12]: 43.7%

Structure (SMILES): CCC(CCCCC1CCC2CC(=O)CC12)OC (stereo not drawn) [Compound V, 2-(5-Methoxyhept-1-yl)bicyclo[3.3.0]octan-7-one]
- collagen production/formation [2]: decrease in collagen production; also recorded: decreased
- % of Androgen Receptor Inhibition [3, 16]: 43.6%
- % of Androgen Receptor Inhibition [3, 17]: 51.3%
- Femtamoles of DHT Bound/mg Protein [3, 16]: 44 Femtamoles/mg Protein
- Femtamoles of DHT Bound/mg Protein [3, 17]: 38 Femtamoles/mg Protein
- anti-androgenic action [4]: anti-androgenic compound operating in the same manner
- effect on binding of estrogen [13]: no effect
- inhibitory effects on species of Fusarium [5]: valuable inhibitory effects
- retarding collagen formation through blockage of androgen receptor sites [14]: excellent results in retarding collagen formation through blockage of androgen receptor sites
- % Block ([15]; patient 1, suprapubic): 43%
- % Block ([15]; patient 2, chest): 24%
- % Block ([15]; patient 3, neck): 57%
- % Block ([15]; patient 4, inguinal groin): 86%
- % Inhibition of 3H Androgen Binding to Skin [8, 16]: 32%
- % Inhibition of 3H Androgen Binding to Skin [8, 17]: 55%
- % Inhibition of 3H Androgen Binding to Skin [8, 18]: 80%
- % Inhibition of 3H Androgen Binding to Skin [8, 19]: 86%
- formation of elastin [9]: massive observable increase in the formation of elastin
- increase in elastin production over control cells [9]: ~30%
- inhibition of the androgen receptor site [12]: inhibited the androgen receptor site
- Femtamoles of Testosterone Bound/mg Protein [12]: 1.9 Femtamoles/mg Protein
- % of Androgen Receptor Inhibition [12]: 47.0%
